Experiment: Antagonist activity at P2Y12 receptor assessed as platelet aggregation by washed platelet assay

| IC50 [nM] | SMILES |
| --- | --- |
| 1310 | CCNC(=O)Nc1ncnc2c1ncn2[C@@H]1O[C@H](COCc2ccc(C(=O)O)cc2)[C@H]2O[C@H](/C=C/c3ccccc3)O[C@H]21 |
| 616 | CCNC(=O)Nc1ncnc2c1ncn2[C@@H]1O[C@H](COCc2cccc(C(=O)O)c2)[C@H]2O[C@H](/C=C/c3ccccc3)O[C@H]21 |
| 40 | CCNC(=O)Nc1ncnc2c1ncn2[C@@H]1O[C@H](COCc2ccccc2C(=O)O)[C@H]2O[C@H](/C=C/c3ccccc3)O[C@H]21 |
| 243 | CCNC(=O)Nc1ncnc2c1ncn2[C@@H]1O[C@H](COCC(=O)O)[C@H]2O[C@H](/C=C/c3ccccc3)O[C@H]21 |
| 663 | CCNC(=O)Nc1ncnc2c1ncn2[C@@H]1O[C@H](CC(=O)O)[C@H]2O[C@H](/C=C/c3ccccc3)O[C@H]21 |
| 2480 | CCNC(=O)Nc1ncnc2c1ncn2[C@@H]1O[C@H](CS(=O)(=O)CC(=O)O)[C@H]2O[C@H](/C=C/c3ccccc3)O[C@H]21 |
| 3800 | CCNC(=O)Nc1ncnc2c1ncn2[C@@H]1O[C@H](CSCC(=O)O)[C@H]2O[C@H](/C=C/c3ccccc3)O[C@H]21 |
| 9900 | CCNC(=O)Nc1ncnc2c1ncn2[C@@H]1O[C@H](CSCC(O)CO)[C@H]2O[C@H](/C=C/c3ccccc3)O[C@H]21 (stereo partly specified) |
| 2490 | CCNC(=O)Nc1ncnc2c1ncn2[C@@H]1O[C@H](CS(=O)(=O)CC(C)O)[C@H]2O[C@H](/C=C/c3ccccc3)O[C@H]21 (stereo partly specified) |
| 2230 | CCNC(=O)Nc1ncnc2c1ncn2[C@@H]1O[C@H](CNC(=O)c2cccs2)[C@H]2O[C@H](/C=C/c3ccccc3)O[C@H]21 |
| 513 | CCNC(=O)Nc1ncnc2c1ncn2[C@@H]1O[C@H](CNCC(=O)O)[C@H]2O[C@H](/C=C/c3ccccc3)O[C@H]21 |
| 2550 | CCNC(=O)Nc1ncnc2c1ncn2[C@@H]1O[C@H](CNCc2ccccc2F)[C@H]2O[C@H](/C=C/c3ccccc3)O[C@H]21 |
| 580 | CCNC(=O)Nc1ncnc2c1ncn2[C@@H]1O[C@H](CN(CC2CC2C(=O)O)CC2CC2C(=O)O)[C@H]2O[C@H](/C=C/c3ccccc3)O[C@H]21 (stereo partly specified) |
| 2700 | CCNC(=O)Nc1ncnc2c1ncn2[C@@H]1O[C@H](CNCC2CC2C(=O)O)[C@H]2O[C@H](/C=C/c3ccccc3)O[C@H]21 (stereo partly specified) |
| 4330 | CCNC(=O)Nc1ncnc2c1ncn2[C@@H]1O[C@H](CNCC2CC2C(=O)OCC)[C@H]2O[C@H](/C=C/c3ccccc3)O[C@H]21 (stereo partly specified) |
| 495 | CCNC(=O)Nc1ncnc2c1ncn2[C@@H]1O[C@H](CCC(=O)O)[C@H]2O[C@H](/C=C/c3ccccc3)O[C@H]21 |
| 201 | CCNC(=O)Nc1ncnc2c1ncn2[C@@H]1O[C@H](C(=O)O)[C@H]2O[C@H](/C=C/c3ccccc3)O[C@H]21 |
| 4730 | CCNC(=O)Nc1ncnc2c1ncn2[C@@H]1O[C@H](CN)[C@H]2O[C@H](/C=C/c3ccccc3)O[C@H]21 |
| 1270 | CCNC(=O)Nc1ncnc2c1ncn2[C@@H]1O[C@H](CO)[C@H]2O[C@H](/C=C/c3ccccc3)O[C@H]21 |
| 2950 | CCNC(=O)Nc1ncnc2c1ncn2[C@@H]1O[C@H](CNC(=O)CO)[C@H]2O[C@H](/C=C/c3ccccc3)O[C@H]21 |
| 4860 | CCNC(=O)Nc1ncnc2c1ncn2[C@@H]1O[C@H](CNC(=O)c2ccco2)[C@H]2O[C@H](/C=C/c3ccccc3)O[C@H]21 |

Source: BindingDB's records for doi:10.1016/j.bmcl.2008.01.038 (Inspire Pharmaceuticals, 2008)
